# From publication PMC6678097, “Machilin A Inhibits Tumor Growth and Macrophage M2 Polarization Through the Reduction of Lactic Acid” (Cancers, 2019)
# Tests used:
# [1] = biological target: T1, purified recombinant human LDHA (rhLDHA) (Homo sapiens, UniProt P00338); test: NADH binding assay (LDHA binding to Cibacron Blue 3GA agarose); conditions: machilin A 10 and 100 μM; NADH positive control
# T1 construct: made in house
# Procedure: An NADH binding assay was performed as described previously. The NADH binding ability of LDHA was determined by measuring the affinity of LDHA to agarose-immobilized Cibacron Blue 3GA, which resembles NADH. Then, 400 ng of purified recombinant human LDHA (rhLDHA) was incubated with NADH or MA, followed by incubation with 30 µL of Cibacron Blue agarose at 4 °C for 2 h. After a washing step with 20 mM Tris-HCl (pH 8.6), LDHA bound to beads was eluted in PBS using a sodium dodecyl sulfate (SDS) gel running buffer and was then subjected to–SDS-polyacrylamide gel electrophoresis (SDS-PAGE) and western blotting. Standardized amounts of protein were used in each reaction.
# HT29 = test: Cell viability, MTT assay; type: cell-based, human
# Procedure: (§1) Human colon cancer cells (WiDr, DLD-1, RKO, and HT29) and murine Lewis lung carcinoma (LLC) cells were purchased from the American Type Culture Collection (Manassas, VA, USA). Human breast cancer MCF7 cells, human hepatocellular carcinoma cells (Huh-7, HepG2, and Hep3B), and human lung cancer cells (HCC-95 and NCI-H1793) were provided by the Korean Cell Line Bank (Seoul, Korea). The HCC-95 and NCI-H1793 cells were grown in a Roswell park memorial institute medium (RPMI) 1640 medium (HyClone^TM; GE Healthcare, Chicago, IL, USA). All other cells were grown in Dulbecco’s modified eagle medium (DMEM) supplemented with L-glutamine (200 mg/L), 10% (v/v) heat-inactivated fetal bovine serum (FBS; Sigma-Aldrich, St. Louis, MO, USA), and antibiotics (100 U/mL penicillin and 100 μg/mL streptomycin; Thermo Fisher Scientific, Waltham, MA, USA) in a humidified incubator at 37 °C and with 5% CO2 before the experiments. For induction of hypoxia condition (1% oxygen), the cells were cultured were cultured in the mixture of 94% nitrogen and 5% CO2/air at 37 °C for 24 h in cell culture incubator. Cytotoxicity of MA was evaluated using an MTT assay. Briefly, cells were incubated in 24-well plates with specified concentrations of MA for 24 or 48 h. Then, MTT solution (2.0 mg/mL) was added to each well. After 4 h of incubation at 37 °C and 5% CO2 in a cell culture incubator, the conditioned media were removed, and the amount of formazan crystals formed in living cells was estimated by measuring the absorbance at 540 nm using a microplate reader (Spectramax M2; Molecular Devices, CA, USA). The respective percentages of living cells were compared with a control treatment.
# Hep3B [2] = test: Cell viability, MTT assay; type: cell-based, human
# Procedure: as §1
# Hep3B [3] = test: Lactate production assay; type: cell-based, human; conditions: normoxic
# Procedure: (§2) Cellular lactate production was measured using a lactate fluorometric assay kit (Biovision, Milpitas, CA, USA) as described previously. Phenol red-free DMEM medium without FBS was added to a six-well plate containing subconfluent cells which were then incubated for 1 h at 37 °C. After incubation, the medium of each well was tested using a lactate assay kit (Biovision, Milpitas, CA, USA).
# DLD-1 [4] = test: Lactate production assay; type: cell-based, human; conditions: normoxic
# Procedure: as §2
# MCF7 = test: Lactate production assay; type: cell-based, human; conditions: normoxic
# Procedure: as §2
# HepG2 [5] = test: Lactate production assay; type: cell-based, human; conditions: normoxic
# Procedure: as §2
# HCC-95 [6] = test: Lactate production assay; type: cell-based, human; conditions: normoxic
# Procedure: as §2
# WiDr [7] = test: Lactate production assay; type: cell-based, human; conditions: normoxic
# Procedure: as §2
# MCF-7 = test: Cell viability, MTT assay; type: cell-based; conditions: Homo sapiens, MCF7, normoxic
# Procedure: as §1
# DLD-1 [8] = test: Cell viability, MTT assay; type: cell-based; conditions: Homo sapiens, normoxic
# Procedure: as §1
# Huh7 = test: Cell viability, MTT assay; type: cell-based; conditions: Homo sapiens, Huh-7, normoxic
# Procedure: as §1
# HepG2 [9] = test: Cell viability, MTT assay; type: cell-based; conditions: Homo sapiens, normoxic
# Procedure: as §1
# RKO = test: Cell viability, MTT assay; type: cell-based; conditions: Homo sapiens, normoxic
# Procedure: as §1
# HCC-95 [10] = test: Cell viability, MTT assay; type: cell-based; conditions: Homo sapiens, HCC95, normoxic
# Procedure: as §1
# NCI-H1793 = test: Cell viability, MTT assay; type: cell-based; conditions: Homo sapiens, normoxic
# Procedure: as §1
# WiDr [11] = test: Cell viability, MTT assay; type: cell-based; conditions: Homo sapiens, normoxic
# Procedure: as §1
# LDHA = LDHA (Homo sapiens, UniProt P00338); test: Intracellular LDH activity in lysates of MA-treated cancer cells; type: cell-based; set-up: One microgram of total protein from cell or tissue lysates was used for intracellular or in vivo LDH assays; endogenous in cells; host or cells: WiDr, DLD-1, RKO, HT29, MCF7, Huh-7, HepG2, Hep3B, HCC-95, NCI-H1793; conditions: for IC50: normoxic
# Procedure: A purification of recombinant LDHA was performed as described previously. LDH activity was determined by measuring the decrease of absorbance at 340 nm due to the oxidation of NADH in 20 mM HEPES-K^+, 0.05% bovine serum albumin (BSA), 20 μM NADH, and 2 mM pyruvate (Sigma-Aldrich, St. Louis, MO, USA) at a pH of 7.2 using a spectrofluorometer (Spectramax M2, Molecular Devices, San Jose, CA, USA; excitation 340 nm; emission 460 nm), as described previously. Ten nanograms of recombinant LDHA protein were used in the in vitro LDH activity assay. One microgram of total protein from cell or tissue lysates was used for intracellular or in vivo LDH assays.
# [12] = hypoxic and normoxic conditions, 48 h
smiles,measurement,setting,value
"C[C@H](Cc1ccc2c(c1)OCO2)[C@@H](C)Cc1ccc2c(c1)OCO2 [MA, bis(3,4-methylenedioxy)-8,8’-lignan]",LDHA binding to Cibacron Blue Agarose beads (NADH mimic),[1],prohibited LDHA binding
same,IC50,"HT29; Homo sapiens, HT-29, normoxic",107 ± 4.66 µM
same,growth of cells,HT29; [12],substantially inhibited the growth
same,IC50,"Hep3B [2]; Homo sapiens, normoxic",140 ± 8.55 µM
same,growth of cells,Hep3B [2]; [12],substantially inhibited the growth
same,Lactate (production),Hep3B [3]; MA 10 µM,1120 ± 40 µM
same,Lactate (production),Hep3B [3]; MA 50 µM,730 ± 10 µM
same,Lactate (production),DLD-1 [4]; MA 10 µM,3680 ± 90 µM
same,Lactate (production),DLD-1 [4]; MA 50 µM,2940 ± 170 µM
same,Lactate (production),MCF7; MA 10 µM,1070 ± 150 µM
same,Lactate (production),MCF7; MA 50 µM,770 ± 190 µM
same,Lactate (production),HepG2 [5]; MA 10 µM,510 ± 60 µM
same,Lactate (production),HepG2 [5]; MA 50 µM,470 ± 70 µM
same,Lactate (production),HCC-95 [6]; MA 10 µM,2250 ± 160 µM
same,Lactate (production),HCC-95 [6]; MA 50 µM,1760 ± 100 µM
same,Lactate (production),WiDr [7]; MA 10 µM,3220 ± 50 µM
same,Lactate (production),WiDr [7]; MA 50 µM,2700 ± 60 µM
same,IC50,MCF-7,217 ± 12.9 µM
same,IC50,DLD-1 [8],423 ± 17.6 µM
same,IC50,Huh7,198 ± 26.7 µM
same,IC50,HepG2 [9],156 ± 23.2 µM
same,IC50,RKO,192 ± 15.2 µM
same,IC50,HCC-95 [10],228 ± 13.9 µM
same,IC50,NCI-H1793,96.7 ± 5.32 µM
same,IC50,WiDr [11],17.2 ± 5.75 µM
same,IC50,LDHA; DLD-1 cells,129 ± 24.8 µM
same,IC50,LDHA; HCC-95 cells,112 ± 10.1 µM
same,increase of LDHA activity in hypoxic condition,"LDHA; HT29, machilin A 30 μM, hypoxia",significantly reduced
same,IC50,LDHA; HT29 cells,48.4 ± 4.33 µM
same,IC50,LDHA; Hep3B cells,48.3 ± 4.13 µM
same,IC50,LDHA; HepG2 cells,101 ± 40.5 µM
same,IC50,LDHA; Huh7 cells,85.1 ± 20.9 µM
same,IC50,LDHA; MCF-7 cells,61.2 ± 3.02 µM
same,IC50,LDHA; NCI-H1793 cells,64 ± 5.61 µM
same,IC50,LDHA; RKO cells,73.7 ± 20.7 µM
same,IC50,LDHA; WiDr cells,61.9 ± 8.02 µM
